Experimental findings from ChEMBL document CHEMBL3393019, “Synthesis and evaluation of NS5A inhibitors containing diverse heteroaromatic cores” (Bioorg Med Chem Lett, 2015) are described below.

Structures are written as SMILES.

The test system of data set [1] is Hepatitis C virus. As to the kind of experiment: Antiviral activity against Hepatitis C virus genotype 1a infected in W11.8 cells assessed as decrease in NS5A expression in replicon cell after 4 days by luminescence based ELISA. It is filed as functional, Hepacivirus hominis. Conditions: subtype 1a, W11.8, 96 h.
Data set [2] can be described thus: Cytotoxicity against human Huh7ET cells by [3H]thymidine incorporation assay. It counts as cell-based, Huh-7. (In general: Incorporation of labelled thymidine or its analogues reports DNA synthesis.)
In data set [3] the test system is Hepatitis C virus. Nature of the data set: Antiviral activity against Hepatitis C virus genotype 1b infected in human Huh-5.2 cells assessed as decrease in HCV replicon RNA replication after 4 days by luciferase assay. It counts as functional, cell-based, Hepacivirus hominis. The following applies: Huh-5-2, 96 h. (In general: A replicon is a self-replicating genome or part of one, used to study replication in cells.)

Data set [4] is described as follows: Half life in iv dosed rat. The following applies: in vivo. It counts as ADME, organism-based.
The nature of data set [5]: Half life in po dosed rat. The following applies: in vivo. It counts as ADME, organism-based.
The nature of data set [6]: Volume of distribution at steady state in iv dosed rat. It counts as ADME, organism-based. The following applies: in vivo, read-out: Vdss.
Data set [7] can be described thus: Cmax in po dosed rat. It counts as ADME, organism-based. Details: route oral. The following applies: in vivo.
Data set [8] in a line: Clearance in iv dosed rat. Conditions: in vivo. It counts as ADME, organism-based.
Data set [9] is described as follows: Oral bioavailability in rat. The following applies: in vivo. It is filed as ADME, organism-based.
Data set [10] is described as follows: AUC (0 to 8 hrs) in po dosed rat. It counts as ADME, organism-based. Details: time < 8 hr, route oral. The following applies: plasma.

Take `COC(=O)N[C@H](C(=O)N1C[C@@H](C)C[C@H]1c1nc2cc(-c3ccc(-c4ccc5oc([C@@H]6C[C@H](C)CN6C(=O)[C@@H](NC(=O)OC)C(C)C)nc5c4)cc3)ccc2o1)C(C)C`: the concentration for a half-maximal effect (EC50) in the data set with Hepatitis C virus [1] was > 2000 nM; with Hepatitis C virus [3], 223 nM. Besides, the CC50 in [2] worked out at 7000 nM.

Consider `COC(=O)N[C@H](C(=O)N1C[C@@H](C)C[C@H]1c1nc2cc(-c3ccc(-c4ccc5oc([C@@H]6C[C@H](C)CN6C(=O)[C@@H](NC(=O)OC)C(C)C)nc5c4)cc3)ccc2[nH]1)C(C)C`, for which the values for the EC50 in the data set on Hepatitis C virus [1] and in the data set with Hepatitis C virus [3] were 58 nM and 0.017 nM, respectively. For the same molecule, in data set [2], the CC50 is > 20000 nM.

With `COC(=O)N[C@H](C(=O)N1C[C@@H](C)C[C@H]1c1nc2cc(-c3cc4sc(-c5ccc6oc([C@@H]7C[C@H](C)CN7C(=O)[C@@H](NC(=O)OC)C(C)C)nc6c5)cc4s3)ccc2o1)C(C)C`, the EC50 was > 2000 nM in the data set on Hepatitis C virus [1] and 23 nM in the data set on Hepatitis C virus [3]. Further, the CC50 in data set [2] was > 20000 nM.

`COC(=O)N[C@H](C(=O)N1C[C@@H](C)C[C@H]1c1nc2cc(-c3cc4sc(-c5ccc6oc([C@@H]7C[C@H](C)CN7C(=O)[C@@H](NC(=O)OC)C(C)C)nc6c5)cc4s3)ccc2[nH]1)C(C)C`: the 50% effective concentration (EC50) stood at 0.032 nM with Hepatitis C virus [1] and 0.003 nM in the data set with Hepatitis C virus [3]. Also, the cytotoxic concentration (CC50) in data set [2] is > 20000 nM.

For the molecule `COC(=O)N[C@H](C(=O)N1C[C@@H](C)C[C@H]1c1nc(-c2ccc(-c3ccc(-c4ccc5oc([C@@H]6C[C@H](C)CN6C(=O)[C@@H](NC(=O)OC)C(C)C)nc5c4)cc3)cc2)c[nH]1)C(C)C`, the results for the EC50 in the data set on Hepatitis C virus [1] and with Hepatitis C virus [3] were 11 nM and 0.023 nM, respectively. In addition, the CC50 in data set [2] was > 20000 nM.

Regarding `COC(=O)N[C@H](C(=O)N1C[C@@H](C)C[C@H]1c1nc2ccc(-c3ccc(-c4ccc5nc([C@@H]6C[C@H](C)CN6C(=O)[C@@H](NC(=O)OC)C(C)C)oc5c4)cc3)cc2o1)C(C)C`, the EC50 with Hepatitis C virus [1] was 630 nM; with Hepatitis C virus [3] it was 0.006 nM. In data set [2], this molecule had a half-maximal cytotoxic concentration (CC50) of 7000 nM.

Regarding `COC(=O)N[C@H](C(=O)N1C[C@@H](C)C[C@H]1c1nc2cc(-c3ccc(-c4ccc5nc([C@@H]6C[C@H](C)CN6C(=O)[C@@H](NC(=O)OC)C(C)C)oc5c4)cc3)ccc2[nH]1)C(C)C`, the figures for the EC50 in the data set on Hepatitis C virus [1] and in the data set on Hepatitis C virus [3] were 1.8 nM and 0.008 nM, respectively. Also, the CC50 in [2] is > 20000 nM.

Take `COC(=O)N[C@H](C(=O)N1C[C@@H](C)C[C@H]1c1nc2ccc(-c3cc4sc(-c5ccc6nc([C@@H]7C[C@H](C)CN7C(=O)[C@@H](NC(=O)OC)C(C)C)oc6c5)cc4s3)cc2o1)C(C)C`: the concentration for a half-maximal effect (EC50) with Hepatitis C virus [1] came to 43 nM; with Hepatitis C virus [3], 0.019 nM. In addition, in [2], the cytotoxic concentration (CC50) is > 20000 nM.

As for `COC(=O)N[C@H](C(=O)N1C[C@@H](C)C[C@H]1c1nc2cc(-c3cc4sc(-c5ccc6nc([C@@H]7C[C@H](C)CN7C(=O)[C@@H](NC(=O)OC)C(C)C)oc6c5)cc4s3)ccc2[nH]1)C(C)C`, the values for the half-life in [4] and in data set [5] were 5.6 h and 14.8 h, respectively. For the same molecule, the EC50 in the data set with Hepatitis C virus [1] turned out to be 0.029 nM; in the data set on Hepatitis C virus [3], 0.004 nM. The CC50 in data set [2] is > 20000 nM. In data set [6], the Vd worked out at 2.8 L/kg. Also, the Cmax in data set [7] came to 0.01 ng/mL. Also, the clearance in [8] turned out to be 6.2 mL/min/kg. Further, in data set [9], the bioavailability was found to be 7.3%. Moreover, the AUC(0-t) at 8 h in [10] was 376 ng·h/mL.

As to `COC(=O)N[C@H](C(=O)N1C[C@@H](C)C[C@H]1c1nc(-c2ccc(-c3ccc(-c4ccc5nc([C@@H]6C[C@H](C)CN6C(=O)[C@@H](NC(=O)OC)C(C)C)oc5c4)cc3)cc2)c[nH]1)C(C)C`, the concentration giving a half-maximal response (EC50) in the data set with Hepatitis C virus [1] was determined as 0.164 nM; in the data set on Hepatitis C virus [3] it was 0.005 nM. For the same molecule, in [2], the CC50 is > 20000 nM.

`COC(=O)N[C@H](C(=O)N1C[C@@H](C)C[C@H]1c1ncc(-c2cc3sc(-c4ccc5[nH]c([C@@H]6C[C@H](C)CN6C(=O)[C@@H](NC(=O)OC)C(C)C)nc5c4)cc3s2)[nH]1)C(C)C`: the 50% effective concentration (EC50) is 0.021 nM with Hepatitis C virus [1] and 0.016 nM with Hepatitis C virus [3]. The cytotoxic concentration (CC50) in [2] is > 20000 nM.

As for `COC(=O)N[C@H](C(=O)N1C[C@@H](C)C[C@H]1c1ncc(-c2ccc(-c3cc4sc(-c5ccc6[nH]c([C@@H]7C[C@H](C)CN7C(=O)[C@@H](NC(=O)OC)C(C)C)nc6c5)cc4s3)cc2)[nH]1)C(C)C`, the half-life in [4] was 3.5 h; in [5] it was 17.2 h. The 50% effective concentration (EC50) in the data set on Hepatitis C virus [1] was found to be 0.008 nM; in the data set on Hepatitis C virus [3] it was 0.006 nM. The CC50 in data set [2] was > 20000 nM. For the same molecule, in data set [6], the Vd is 1.6 L/kg. This molecule displayed a Cmax in [7] of 0.01 ng/mL. In addition, in [8], the clearance stood at 8.1 mL/min/kg. In data set [9], this molecule registered a bioavailability of 8.4%. Also, the AUC(0-t) at 8 h in data set [10] was 281 ng·h/mL.

For the molecule `COC(=O)N[C@H](C(=O)N1C[C@@H](C)C[C@H]1c1nc2cc(-c3cc4sc(-c5ccc6nc([C@@H]7C[C@H](C)CN7C(=O)[C@@H](NC(=O)OC)C(C)C)[nH]c6c5)cc4s3)ccc2[nH]1)C(C)C`, the figures for the EC50 in the data set with Hepatitis C virus [1] and with Hepatitis C virus [3] were 0.004 nM and 0.009 nM, respectively. For the same molecule, the cytotoxic concentration (CC50) in [2] is > 20000 nM.

In the case of `COC(=O)N[C@H](C(=O)N1C[C@@H](C)C[C@H]1c1nc2cc(-c3cc4sc(-c5ccc6nc([C@@H]7C[C@H](C)CN7C(=O)[C@@H](NC(=O)OC)C(C)C)n(C)c6c5)cc4s3)ccc2[nH]1)C(C)C`, the EC50 worked out at 0.024 nM in the data set with Hepatitis C virus [1] and 0.004 nM with Hepatitis C virus [3]. Also, the cytotoxic concentration (CC50) in data set [2] is > 20000 nM.

Regarding `COC(=O)N[C@H](C(=O)N1C[C@@H](C)C[C@H]1c1nc2cc(-c3cc4sc(-c5cc6nc([C@@H]7C[C@H](C)CN7C(=O)[C@@H](NC(=O)OC)C(C)C)[nH]c6s5)cc4s3)ccc2[nH]1)C(C)C`, the EC50 came out at 0.011 nM with Hepatitis C virus [1] and 0.004 nM in the data set on Hepatitis C virus [3]. Moreover, the CC50 in [2] was > 20000 nM.

Regarding `COC(=O)N[C@H](C(=O)N1C[C@@H](C)C[C@H]1c1cc2cc(-c3cc4sc(-c5ccc6[nH]c([C@@H]7C[C@H](C)CN7C(=O)[C@@H](NC(=O)OC)C(C)C)nc6c5)cc4s3)ccc2[nH]1)C(C)C`, the results for the 50% effective concentration (EC50) with Hepatitis C virus [1] and in the data set with Hepatitis C virus [3] were 1.3 nM and 0.006 nM, respectively. Further, the cytotoxic concentration (CC50) in [2] was > 20000 nM.

In the case of `COC(=O)N[C@H](C(=O)N1C[C@@H](C)C[C@H]1c1cc2ccc(-c3cc4sc(-c5ccc6[nH]c([C@@H]7C[C@H](C)CN7C(=O)[C@@H](NC(=O)OC)C(C)C)nc6c5)cc4s3)cc2[nH]1)C(C)C`, the half-life in [4] is 4.6 h; in data set [5], 16.6 h. In addition, the EC50 with Hepatitis C virus [1] is 0.02 nM; with Hepatitis C virus [3], 0.006 nM. The CC50 in data set [2] was > 20000 nM. For the same molecule, the Vd in [6] was determined as 1.6 L/kg. This molecule also yielded a maximum concentration (Cmax) in [7] of 0.02 ng/mL. The clearance in data set [8] was 4.7 mL/min/kg. Further, the bioavailability in data set [9] was determined as 8.4%. The same molecule displayed an AUC(0-t) at 8 h in data set [10] of 659 ng·h/mL.

For the molecule `COC(=O)N[C@H](C(=O)N1C[C@@H](C)C[C@H]1c1nc2cc(-c3cc4sc(-c5ccc6sc([C@@H]7C[C@H](C)CN7C(=O)[C@@H](NC(=O)OC)C(C)C)nc6c5)cc4s3)ccc2[nH]1)C(C)C`, the EC50 is 6.8 nM with Hepatitis C virus [1] and 0.025 nM in the data set with Hepatitis C virus [3]. The CC50 in [2] was > 20000 nM.

`COC(=O)N[C@H](C(=O)N1C[C@@H](C)C[C@H]1c1cn2cc(-c3cc4sc(-c5ccc6[nH]c([C@@H]7C[C@H](C)CN7C(=O)[C@@H](NC(=O)OC)C(C)C)nc6c5)cc4s3)ccc2n1)C(C)C`: the EC50 is 0.006 nM in the data set on Hepatitis C virus [1] and 0.004 nM with Hepatitis C virus [3]. For the same molecule, in [2], half-maximal cytotoxicity (CC50) was put at 8000 nM.

As usually defined, the EC50 is the concentration that produces a half-maximal response. In general, CC50 refers to the concentration giving 50% cytotoxicity. Read a low CC50 as greater toxicity to the cells. For orientation: half-life means how long it takes for the measured level to halve. Read a low half-life as fast loss. One may read the Cmax as the peak of the concentration-time curve. The clearance is the volume of plasma or blood freed of the substance per unit of time. The low end stands for inefficient removal, the high end for efficient removal. What is called bioavailability is dose-corrected exposure relative to a reference, in per cent. The low end stands for little systemic uptake, the high end for much systemic uptake. A word on the AUC(0-t): it is exposure summed from dosing to a finite time, without extrapolation to infinity. High values mean more exposure, low ones less exposure.
